From US8168625B2, “Pharmaceutical composition based on agonist of benzodiazepine” (Sigma Pharma Ltda., priority 2003, dated 2012)
Read-outs that look alike come from different tables or passages of the source.

How the values were obtained:
[1] = Bioavailability after single dose: sublingual tablets (Examples I-III) versus conventional oral tablets, crossed randomized studies; settings: for AUC(0-inf) / AUC(0-t) / Cmax / Tmax / concentration / concentration at 0 min / concentration at 20 min / concentration at 40 min / concentration at 1 h / concentration at 2 h / concentration at 2.5 h / concentration at 4 h / concentration at 6 h / concentration at 8 h / concentration at 10 h / concentration at 12 h / concentration at 24 h: male, human, plasma; for AUC and Cmax, sublingual versus oral: sublingual versus conventional oral tablets
Description: Three studies were carried out, each of them with eight healthy volunteers of the male sex, recruited after information on the nature and characteristics of the principles included in the scope of the study. Each study, composed of two periods of treatment, was carried out according to a crossed and randomized scheme. All individuals received the previously established dose of the active ingredient in the form of conventional oral tablets and sublingual tablets, with a period of detoxication of, at least, seven days between the first and the following administration, according to a previously established randomized list. The sublingual tablets were placed under the tongue until complete dissolution, in correspondence with the venous plexus, while the conventional oral tablets were swallowed unbroken with 150 ml of mineral water. Within the intervals of 0-20-40 minutes, 1-1,5-2-2,5-3-3,5-4-6-8-10-[…] and 24 hours after the treatment, 5 ml of blood were collected.

[2] = cited from earlier work; for plasmatic concentration peak: 2 mg tablets

| SMILES | AUC(0-inf) [1] | AUC(0-t) [1] | Cmax [1] | Tmax [1] | concentration ([1]; other: sublingual) | concentration at 0 min ([1]; other: sublingual) | concentration at 20 min ([1]; other: sublingual) | concentration at 40 min ([1]; other: sublingual) | concentration at 1 h ([1]; other: sublingual) | concentration at 2 h ([1]; other: sublingual) | concentration at 2.5 h ([1]; other: sublingual) | concentration at 4 h ([1]; other: sublingual) | concentration at 6 h ([1]; other: sublingual) | concentration at 8 h ([1]; other: sublingual) | concentration at 10 h ([1]; other: sublingual) | concentration at 12 h ([1]; other: sublingual) | concentration at 24 h ([1]; other: sublingual) | Tmax ([1]; other: sublingual versus oral) | AUC(0-inf) ([1]; po) | AUC(0-t) ([1]; po) | other results |
| --- | --- | --- | --- | --- | --- | --- | --- | --- | --- | --- | --- | --- | --- | --- | --- | --- | --- | --- | --- | --- | --- |
| O=C1CN=C(c2ccccn2)c2cc(Br)ccc2N1 [BROMAZEPAN, bromazepam] | 1900 ± 326 ng·h/mL | 1160 ± 102 ng·h/mL | 120 ± 12.1 ng/mL | 45 ± 9 min | 67.9 ± 6.1 ng/mL | 0 ng/mL | 80.8 ± 11.3 ng/mL | 109 ± 22.1 ng/mL | 110 ± 15.2 ng/mL | 84 ± 5.7 ng/mL | 74.2 ± 5.7 ng/mL | 63.4 ± 5.5 ng/mL | 57.1 ± 5 ng/mL | 49.4 ± 7 ng/mL | 44.8 ± 6.2 ng/mL | 38.8 ± 5.6 ng/mL | 33.5 ± 6.1 ng/mL | ~30 min | 1760 ± 223 ng·h/mL | 1130 ± 60.2 ng·h/mL | Cmax ([1]; po): 125 ± 9.81 ng/mL; Tmax ([1]; po): 75 ± 22.8 min; concentration ([1]; po): 70.2 ± 6.8 ng/mL; concentration at 20 min ([1]; po): 69 ± 10.1 ng/mL; concentration at 40 min ([1]; po): 91.7 ± 5.6 ng/mL; concentration at 1 h ([1]; po): 117 ± 14.9 ng/mL; concentration at 2 h ([1]; po): 91.6 ± 9.7 ng/mL; concentration at 2.5 h ([1]; po): 77.2 ± 5.9 ng/mL; concentration at 4 h ([1]; po): 63.1 ± 6.9 ng/mL; concentration at 6 h ([1]; po): 53.4 ± 4.8 ng/mL; concentration at 8 h ([1]; po): 49.1 ± 4.4 ng/mL; concentration at 10 h ([1]; po): 42.7 ± 3.1 ng/mL; concentration at 12 h ([1]; po): 37.9 ± 3 ng/mL; concentration at 24 h ([1]; po): 30.2 ± 3.8 ng/mL; AUC and Cmax, sublingual versus oral [1]: comparable |
| CN1C(=O)CN=C(c2ccccc2)c2cc(Cl)ccc21 [DIAZEPAM, diazepam] |  |  |  |  |  |  |  |  |  |  |  |  |  |  |  |  |  |  |  |  | hematological rates after sublingual administration in relation to oral administration ([1]; first hour): definitely higher |
| O=C1Nc2ccc(Cl)cc2C(c2ccccc2Cl)=NC1O (stereo not drawn) [LORAZEPAM, lorazepam] | 621 ± 70.1 ng·h/mL | 452 ± 53 ng·h/mL | 56.9 ± 8.41 ng/mL | 42.6 ± 720 min | 28.3 ± 4.2 ng/mL | 0 ng/mL | 44.5 ± 5.9 ng/mL | 56.5 ± 8.5 ng/mL | 47.9 ± 8.5 ng/mL | 37.2 ± 7.7 ng/mL | 32.2 ± 4.4 ng/mL | 25.6 ± 5 ng/mL | 22.8 ± 4.61 ng/mL | 9.6 ± 3.7 ng/mL | 17.6 ± 2.6 ng/mL | 14.5 ± 2.3 ng/mL | 10.3 ± 1.1 ng/mL | ~30 min | 656 ± 143 ng·h/mL | 454 ± 74.1 ng·h/mL | Cmax ([1]; po): 54.4 ± 4.98 ng/mL; Tmax ([1]; po): 91.2 ± 29.4 min; concentration ([1]; po): 33.4 ± 10.3 ng/mL; concentration at 0 min ([1]; po): 0 ng/mL; concentration at 20 min ([1]; po): 30.8 ± 9.4 ng/mL; concentration at 40 min ([1]; po): 41 ± 10.4 ng/mL; concentration at 1 h ([1]; po): 46.1 ± 7.9 ng/mL; concentration at 2 h ([1]; po): 47.3 ± 9.1 ng/mL; concentration at 2.5 h ([1]; po): 39 ± 10.2 ng/mL; concentration at 4 h ([1]; po): 28.2 ± 8.4 ng/mL; concentration at 6 h ([1]; po): 22.6 ± 5.7 ng/mL; concentration at 8 h ([1]; po): 19.6 ± 4.8 ng/mL; concentration at 10 h ([1]; po): 16.6 ± 3.5 ng/mL; concentration at 12 h ([1]; po): 13.5 ± 2.3 ng/mL; concentration at 24 h ([1]; po): 10.6 ± 1.7 ng/mL; AUC and Cmax, sublingual versus oral [1]: comparable; plasmatic concentration peak ([2]; after oral administration): ~17 ng/mL; plasmatic concentration peak ([2]; after sublingual administration): about 25 ng/ml; absorption of sublingual formulation compared to oral tablets and intramuscular formulation ([2]; during the first 60 minutes, 2 mg): higher |
